Laboratory results as given in patent publication US9487492B2, “Dibenzothiazepine derivatives and their use in the treatment of CNS disorders” (NUMEDICUS LIMITED, priority 2011, dated 2016).

Experiments:
[1] = test system: hippocampal CA1 pyramidal neurones; experiment: Whole cell recording of EPSC amplitude in hippocampal slices; assay type: cell-based, male Sprague-Dawley rats
Method: The stimulatory activity of the compounds of the invention on the central nervous system was evaluated in-vitro by recording the excitatory postsynaptic current (EPSC) amplitude in stimulated hippocampal CA1 pyramidal neurones from slices of male Sprague-Dawley rats, as described in more detail hereinafter in the Experimental and Preparations section.
Male Sprague-Dawley rats, 15 to 20 days old at the time of surgery, were used in this study. On the day of the experiment, animals were terminally anaesthetized using isofluorane, cervically dislocated, and decapitated. The brain was removed and 400 μm thick parasagittal brain slices prepared using a Leica VT1000S. Slices were maintained in an artificial cerebrospinal fluid (ACSF) of the following composition (in mM, aqueous solution): 127 NaCl; 1.9 KCl; 1.2 KH2PO4; 2.4 CaCl2; 1.3 MgCl2; 26 NaHCO3; and, 10 D-glucose, bubbled with a mixture of 95% O2/5% CO2, at room temperature for 1 hour after slicing before commencing electrophysiological recordings. […]

[2] = PPB (compound bound to proteins); conditions: plasma
[3] = test system: cryopreserved beagle dog hepatocytes; experiment: Metabolic stability in cryopreserved beagle dog hepatocytes; assay type: in vitro ADME; conditions: Example 2 versus tianeptine
Method: (§1) The metabolic stability of the compounds of the invention was evaluated in-vitro using cryopreserved beagle dog hepatocytes, as described in more detail hereinafter in the Experimental and Preparations section.
(§2) The test compound (1 μM) was incubated with cryopreserved beagle dog hepatocytes at 3 million cells per ml, in 300 μL of Leibovitz's medium for a total period of 90 min. During this period, 25 μL aliquots were taken at 1, 10, 30, 50, 70 & 90 minutes and quenched in acetonitrile. Quenched samples were centrifuged to pellet the precipitated protein, and supernatant removed for LC-MS-MS (high performance liquid chromatography coupled to a tandem mass spectrometer) analysis to quantify the amount of the parent test compound remaining. The first order elimination rate constant (k) was determined from a plot of natural log of parent test compound remaining versus time, and used to calculate a metabolic stability half-life (T1/2), where T1/2=Ln2/k where k=elimination rate constant.

[4] = as above; assay type: in vitro ADME; conditions: beagle, dog, cryopreserved hepatocytes, test compound 1 μM, 3 million cells per ml, 90 min incubation
Method: as §1, §2

## CN1c2ccccc2C(NCCCCOCC(=O)O)c2ccc(Cl)cc2S1(=O)=O (stereo not drawn) [Example 2, 2-(4-((3-chloro-6-methyl-5,5-dioxido-6,11-dihydrodibenzo[c,f][1,2]thiazepin-11-yl)amino)butoxy)acetic acid]
[1]; 10 μM bath applied, percentage of the control, mean±S.E.M (n=6)
  increase of control EPSC amplitude: 224.67±34.27%
[1]; representative electrophysiological recording, 10 μM
  effect on excitatory transmission in CA1 region of hippocampus (FIG. 1): facilitates excitatory transmission
[2]
  fraction unbound: 0.18
[3]
  metabolic stability half life compared with tianeptine: more than 10 times
[4]; T1/2=Ln2/k
  half-life at 1 μM: 34.4 h
[4]; read-out: Clint (intrinsic clearance)
  hepatocyte CLint at 1 μM: 0.3 µL/min/1e6 cells
